Laboratory results: BindingDB's records for doi:10.1016/j.ejmech.2016.06.019 (Federal University of Minas Gerais, 2016)

Assay: Activation of NQO1 in human A549 cells assessed as decrease in cell survival incubated for 2 hrs measured after 7 days in presence of NQO1 inhibitor dicoumarol by Hoechst 33258 staining based assay

Which IC50 does the source give for `CC1(C)OC2=C(C(=O)C(=O)c3ccccc32)C1Nc1cccc(-c2cn(C[Se]c3ccccc3)nn2)c1` (centres undefined) here?
The IC50 was greater than 3.2 µM.

For `CC1(C)OC2=C(C(=O)C(=O)c3ccccc32)C1Nc1ccc([N+](=O)[O-])cc1` (centres undefined), which IC50 is on record?
The IC50 was greater than 3.2 µM.

For `CC1(C)OC2=C(C(=O)C(=O)c3ccccc32)C1Nc1cccc([N+](=O)[O-])c1` (centres undefined), which IC50 is on record?
Its IC50 is greater than 3.2 µM.

For `CC1(C)OC2=C(C(=O)C(=O)c3ccccc32)C1Nc1ccc(F)c([N+](=O)[O-])c1` (centres undefined), which IC50 is on record?
The IC50 was greater than 3.2 µM.
